From patent US20230192650A1, “NOVEL ACID SECRETION INHIBITOR AND USE THEREOF” (Ildong Pharmaceutical Co., Ltd., priority 2020, published 2023)
Read-outs that look alike come from different tables or passages of the source.

Key:
[1] = target: T1, proton pump (H+/K+-ATPase) (Sus scrofa, UniProt P19156); assay: Inhibitory activity on proton pump (H+/K+-ATPase), malachite green assay; format: biochemical; conditions: pig gastric vesicles, pH 6.5
T1 construct: Gastric vesicles isolated from pig stomach were prepared according to the document; from tissue; host or cells: pig stomach (gastric vesicles)
T1 sequence (P19156 2-1034 limits assumed): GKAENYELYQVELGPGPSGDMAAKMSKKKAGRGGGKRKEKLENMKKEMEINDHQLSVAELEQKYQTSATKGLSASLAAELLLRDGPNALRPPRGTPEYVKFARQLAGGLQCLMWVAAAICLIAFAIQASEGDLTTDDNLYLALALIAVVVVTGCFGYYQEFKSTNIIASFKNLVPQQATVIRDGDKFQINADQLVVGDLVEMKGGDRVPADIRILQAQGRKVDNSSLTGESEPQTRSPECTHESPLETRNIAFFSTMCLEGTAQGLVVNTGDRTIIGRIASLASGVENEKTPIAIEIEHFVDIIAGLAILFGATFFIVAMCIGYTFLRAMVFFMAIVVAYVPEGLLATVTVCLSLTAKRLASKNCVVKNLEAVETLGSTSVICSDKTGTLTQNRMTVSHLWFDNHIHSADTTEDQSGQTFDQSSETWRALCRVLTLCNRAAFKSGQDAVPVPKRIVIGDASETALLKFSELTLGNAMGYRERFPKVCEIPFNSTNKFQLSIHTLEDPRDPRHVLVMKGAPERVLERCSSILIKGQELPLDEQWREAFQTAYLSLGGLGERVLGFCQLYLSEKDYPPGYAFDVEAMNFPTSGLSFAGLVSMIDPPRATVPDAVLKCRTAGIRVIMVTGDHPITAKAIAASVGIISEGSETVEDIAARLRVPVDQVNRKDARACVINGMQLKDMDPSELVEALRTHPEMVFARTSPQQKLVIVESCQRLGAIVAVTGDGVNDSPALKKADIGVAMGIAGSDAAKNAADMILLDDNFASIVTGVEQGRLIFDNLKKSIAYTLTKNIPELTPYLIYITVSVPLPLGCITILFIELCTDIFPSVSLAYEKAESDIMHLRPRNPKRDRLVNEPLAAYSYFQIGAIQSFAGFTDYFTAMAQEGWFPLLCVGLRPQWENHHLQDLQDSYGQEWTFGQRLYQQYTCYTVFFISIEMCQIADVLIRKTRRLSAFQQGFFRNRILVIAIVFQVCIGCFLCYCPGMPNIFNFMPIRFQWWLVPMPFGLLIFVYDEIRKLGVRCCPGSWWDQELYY
T1 sequence (P18434 whole entry partner): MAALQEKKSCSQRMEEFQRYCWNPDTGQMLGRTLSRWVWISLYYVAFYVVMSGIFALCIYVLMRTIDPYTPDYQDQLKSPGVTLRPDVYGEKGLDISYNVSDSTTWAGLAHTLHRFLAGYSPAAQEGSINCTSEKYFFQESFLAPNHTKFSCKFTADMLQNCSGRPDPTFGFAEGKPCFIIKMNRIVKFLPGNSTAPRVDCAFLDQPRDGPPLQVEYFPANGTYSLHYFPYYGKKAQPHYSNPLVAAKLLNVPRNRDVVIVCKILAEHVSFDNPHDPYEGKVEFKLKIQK
Protocol: (§1) The proton pump (H+/K+-ATPase) inhibitory activity of the prepared compound was measured as follows. Gastric vesicles isolated from pig stomach were prepared according to the document (see Methods Mol Biol. 2016; 1377:19-27). The protein contents of the gastric vesicles were quantified with a Bicinchoninic Acid (BCA) kit (Sigma Aldrich, BCA1). To each well of a 96-well plate, 70 μl of 50 mM Tris-HEPES buffer (pH 6.5) containing 125 ng of vesicles, DMSO or a substance for each concentration (final DMSO concentration of 1%), 5 mM MgCl2, and 10 mM KCl was added and pre-incubated at 37° C. for 30 minutes. Then, 10 μl of 2 mM ATP was added to each well, followed by enzymatic reaction at 37° C. for 40 minutes. The reaction was stopped by adding 20 μl of malachite green reagent (Sigma Aldrich, MAK307) and the resulting mixture was allowed to stand at room temperature for 30 minutes. By measuring the absorbance at 620 nm using a Microplate Reader (Biotek, Synergy H4), an amount of inorganic phosphorus released from ATP degradation was measured and the enzyme activity was measured. The absorbance of the enzyme-reacted sample without adding KCl was measured, and the measurement value was subtracted from all the above measurements. Assuming that the group treated with 1% DMSO (DMSO control group) was 100% H^+/K^+-ATPase enzyme activity, and that the group without KCl (KCl control group) was 0% H^+/K^+-ATPase enzyme activity, % inhibition was calculated as in the following Equation 1:
% inhibition=[1−(ODtreatment group−ODKCl control group)/(ODDMSO control group−ODKCl control group))]*100. [Equation 1]
IC50 was obtained by nonlinear regression analysis of GraphPad Prism7 program using % inhibition values for each concentration, and results thereof are shown in Table 2 below.

[2] = system: basal gastric acid secretion; assay: Inhibition of basal gastric acid secretion in pylorus-ligated rat (Shay's rat model); format: in vivo; conditions: SD rats, 10 mg/kg oral 1 h before pylorus ligation, 5 hours after ligation
Protocol: The inhibitory efficacy of the prepared compound on basal gastric acid secretion was measured by employing the Shay's rat model [Shay H, et al., Gastroenterology, 1945, 5, 43˜61].
Male Sprague Dawley (SD) rats were divided into 8 rats per group, and fasted with only water supply for 24 hours. Then, one hour before pylorus ligation, the control group was orally administered with 0.5% methylcellulose solution, and the other groups were orally administered with the Example compound at a dose of 10 mg/10 mL/kg suspended in 0.5% methylcellulose solution.
After 5 hours of ligation, the rats were sacrificed under Zoletil and Xylazine anesthesia, and the gastric contents were enucleated by incision of the abdominal cavity. The obtained contents were centrifuged at 3,000 rpm for 10 minutes to separate only the supernatant, and gastric juice was collected. 1 mL of the collected gastric juice was taken into a beaker and the pH was measured using an electrode pH meter. To 1 mL of gastric juice, 0.03 mL each of 0.5% dimethylaminoazobenzene alcohol solution and 1% phenolphthalein alcohol solution was added to make red color, and then 0.1N NaOH solution was added, wherein the volume until the rose tint appeared was determined as the total acidity, and the total acid output was obtained by multiplying the acidity of gastric juice by the amount of gastric juice. The % inhibitory activity of the Example compound was calculated according to the following Equation 2, and results thereof are shown in Table 6 below.
% inhibitory activity of Example compound=[(total gastric acid secretion in Control group−total gastric acid secretion in group treated with Example compound)/total gastric acid secretion in Control group]×100 [Equation 2]

[3] = Pharmacokinetic test in rats; format: in vivo; conditions: blood, rat; for bioavailability: oral 10 mg/kg vs intravenous 5 mg/kg, read-out: F (%) bioavailability; for AUC(0-inf): single oral dose 10 mg/kg
Protocol: (§2) The Example compound was dissolved in PBS containing 5% DMSO and 20% hydroxypropyl (HP) beta cyclodextrin, and administered intravenously to rats at a dose of 5 mg/kg, and the Example compound was suspended in distilled water containing 0.5% methylcellulose, and orally administered to rats at a dose of 10 mg/kg. The Example compound was dissolved in PBS containing 5% DMSO and 20% hydroxypropyl (HP) beta cyclodextrin, and administered intravenously to beagle dogs at a dose of 5 mg/kg, and the Example compound was suspended in distilled water containing 0.5% methylcellulose, and orally administered to beagle dogs at a dose of 10 mg/kg. Blood samples were collected at scheduled time points after the single intravenous and oral administration of the Example compound to normal rats and beagle dogs. Acetonitrile containing an internal standard material was added to the collected blood sample for protein precipitation. The sample extracted through protein precipitation was centrifuged, and then the supernatant was injected into LC-MS/MS to be subjected to quantitative analysis of the blood concentration of the Example compound. The AUC for each administration route was calculated based on the blood concentration-time profile obtained as a result above, and based on this, the bioavailability (F) upon oral administration was calculated.

[4] = Pharmacokinetic test in beagle dogs; format: in vivo; conditions: blood, beagle dog; for bioavailability: oral 10 mg/kg vs intravenous 5 mg/kg, read-out: F (%) bioavailability; for AUC(0-inf): single oral dose 10 mg/kg
Protocol: as §2

[5] = target: T1, proton pump (H+/K+-ATPase); assay: Reversibility of proton pump inhibition by jump dilution method; format: biochemical, pig; conditions: 0.2 μM compound
Protocol: In addition, in order to confirm the reversibility of the inhibition ability on the proton pump (H^+/K^+-ATPase) of the prepared compound, an experiment was performed by the jump dilution method. 6.25 μg of gastric vesicles isolated from pig stomach and 0.2 μM of each compound were pre-incubated for 120 minutes, and then the enzyme activity before dilution and the enzyme activity after 50-fold dilution were compared for each reaction time, and the reversibility was evaluated. In both Example 1 and Example 3, the inhibition ability of 50% or more was confirmed after 20 minutes of the reaction. On the other hand, when the reaction was performed for 60 minutes after the 50-fold dilution, in both Examples 1 and 3, the enzyme activity was recovered to 90% or more, and reversible results were confirmed.

[6] = target: T1, proton pump (H+/K+-ATPase); assay: Proton pump (H+/K+-ATPase) inhibitory activity depending on pH; format: biochemical, pig
Protocol: as §1, with “1: […]” for “1:”
In order to measure the change in proton pump (H+/K+-ATPase) inhibitory activity depending on the pH of the prepared compound, an experiment was performed in the same manner as in Test Example 1 under three conditions of pH 6.5, pH 7.0, and pH 7.5.

[7] = target: human SSTR4 (Homo sapiens, UniProt P31391); assay: SSTR4 agonist effect (cell-based cAMP functional assay, HTRF); conditions: CHO cells stably expressing human SSTR4, 37° C. 30 minutes, vs sst-14 10 nM
human SSTR4, sequence (P31391 whole entry): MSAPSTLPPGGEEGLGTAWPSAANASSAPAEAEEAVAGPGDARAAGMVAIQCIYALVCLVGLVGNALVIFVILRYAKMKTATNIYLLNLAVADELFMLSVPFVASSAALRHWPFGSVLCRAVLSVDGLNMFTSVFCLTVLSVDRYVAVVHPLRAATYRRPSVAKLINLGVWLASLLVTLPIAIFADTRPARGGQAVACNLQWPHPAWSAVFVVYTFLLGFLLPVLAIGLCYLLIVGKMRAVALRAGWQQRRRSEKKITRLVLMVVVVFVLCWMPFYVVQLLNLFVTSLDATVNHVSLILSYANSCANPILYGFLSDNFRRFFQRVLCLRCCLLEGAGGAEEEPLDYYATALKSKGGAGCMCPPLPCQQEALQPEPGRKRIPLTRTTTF
Protocol: The agonism effect on SSTR4 was confirmed by cell-based cAMP functional assay. CHO cells in which human SSTR4 was stably expressed were treated with test substances for each concentration and reacted at 37° C. for 30 minutes, and an amount of the produced cAMP was measured by the HTRF detection method. The % response compared to the reference control agonist (sst-14, 10 nM) was calculated, and the EC50 was calculated through the concentration-response curve.

[8] = system: indomethacin-induced gastric damage; assay: Gastric damage inhibitory efficacy in rat of indomethacin-induced gastric damage; format: in vivo; conditions: SD rats, 10 mg/kg oral 1 hour before indomethacin, 5 hours
Protocol: The experiment was performed as follows to evaluate the gastric ulcer inhibitory efficacy of the Example compound in rat models of gastric damage induced by indomethacin, a drug in the NSAID classes.
Among fasted male Sprague Dawley rats, the control group was orally administered with 0.5% methylcellulose solution, and the other groups were orally administered with the Example compound at a dose of 10 mg/10 mL/kg suspended in 0.5% methylcellulose solution.
In 1 hour after oral administration of the Example compound, indomethacin was orally administered, and after 5 hours, the test animals were sacrificed and the stomach was enucleated. After washing the enucleated surface of the stomach, the greater curvature of the stomach was incised. The incised stomach was spread out and fixed. Then, the ratio of the gastric damaged area was obtained by the total gastric area and the damaged area on the gastric mucosa surface using ImageJ software (NIH, Bethesda), and the % inhibitory activity of the Example compound was calculated according to the following Equation 3.
% inhibitory activity of Example compound=[(ratio of gastric damaged area in control group−ratio of gastric damaged area in group treated with Example compound)/(ratio of gastric damaged area in control group)]×100 [Equation 3]

[9] = Intragastric distribution test in rats; format: in vivo; conditions: rat, oral 4 mg/kg, 1, 6, 12 and 24 hours
Protocol: After oral administration of the Example compound in normal rats, the intragastric distribution by time was measured as follows. The prepared compound was dissolved in distilled water containing 0.5% methylcellulose to 0.2 mg/mL, and then orally administered at a dosage of 4 mg/kg. Rats were sacrificed at 1 hour, 6 hours, 12 hours, and 24 hours after administration. Then, blood was exsanguinated through the heart and perfused with physiological saline, the gastric tissue was enucleated, weighed, and stored at −80° C. until the point of analysis. PBS buffer was added so that the ratio of gastric tissue weight to PBS buffer was 1:4, and the compound in gastric tissue was extracted using a homogenizer. The supernatant of the extract was taken and was subjected to protein precipitation using acetonitrile, and then an amount of the Example compound was measured using LC-MS/MS.

[10] = after 20 minutes of the reaction, read-out: inhibition ability
[11] = reaction time 20 min, after 50-fold dilution, read-out: % Inhibition
[12] = reaction time 20 min, before dilution, read-out: % Inhibition
[13] = reaction time 60 min, after 50-fold dilution, read-out: % Inhibition
[14] = reaction time 60 min, before dilution, read-out: % Inhibition
[15] = reaction time 120 min, after 50-fold dilution, read-out: % Inhibition
[16] = reaction time 120 min, before dilution, read-out: % Inhibition

Row | Compound | IC50 [1] | Inhibitory Activity (%) on total gastric acid secretion [2] | pH of gastric juice [2] | bioavailability [3] | AUC(0-inf) [3] | bioavailability [4] | AUC(0-inf) [4] | inhibition at 0.2 µM [5, 10] | inhibition at 0.2 µM [5, 11] | inhibition at 0.2 µM [5, 12] | inhibition at 0.2 µM [5, 13] | inhibition at 0.2 µM [5, 14] | inhibition at 0.2 µM [5, 15] | inhibition at 0.2 µM [5, 16] | IC50 ([6]; pH 6.5) | IC50 ([6]; pH 7.0) | IC50 ([6]; pH 7.5) | EC50 [7] | Inhibitory Activity (%) on ratio of gastric damaged area [8] | other results
1 | CNCc1cn(S(=O)(=O)c2ccc(C)nc2)c(-c2ccccc2F)c1OC [Example 4, 1-(5-(2-Fluorophenyl)-4-methoxy-1-((6-methylpyridin-3-yl)sulfonyl)-1H-pyrrol-3-yl)-N-methylmethanamine] | ≤ 300 nM |  |  |  |  |  |  |  |  |  |  |  |  |  |  |  |  |  |  | 
2 | CNCc1cn(S(=O)(=O)c2ccc(OC)nc2)c(-c2ccc(F)cc2F)c1OC [Example 2, 1-(5-(2,4-Difluorophenyl)-4-methoxy-1-((6-methoxypyridin-3-yl)sulfonyl)-1H-pyrrol-3-yl)-N-methylmethanamine] | ≤ 300 nM | +++ (90% or more: +++) | 8.04 ± 0.16 |  |  |  |  |  |  |  |  |  |  |  |  |  |  |  |  | 
3 | CNCc1cn(S(=O)(=O)c2ccc(C)nc2)c(-c2ccc(F)cc2F)c1OC [Example 3, 1-(5-(2,4-Difluorophenyl)-4-methoxy-1-((6-methylpyridin-3-yl)sulfonyl)-1H-pyrrol-3-yl)-N-methylmethanamine] | ≤ 300 nM | +++ (90% or more: +++) | 8.08 ± 0.24 | 27.3% | 275 ng·h/mL | 83.8% | 14500 ng·h/mL | ≥ 50% | 20 to 50% | ≥ 50% | < 20% | ≥ 50% | < 20% | ≥ 50% | ≤ 100 nM | 100 to 1000 nM | 100 to 1000 nM | 3900 nM | +++ (97% or more: +++) | inhibition ability depending on pH ([6]; pH 6.5, pH 7.0, pH 7.5 compared): higher inhibition ability in a weakly acidic condition compared to a neutral condition
4 | CNCc1cn(S(=O)(=O)c2ccc(OC)nc2)c(-c2ccccc2F)c1OC [Example 1, 1-(5-(2-Fluorophenyl)-4-methoxy-1-((6-methoxypyridin-3-yl)sulfonyl)-1H-pyrrol-3-yl)-N-methylmethanamine] | ≤ 300 nM | +++ (90% or more: +++) | 8.25 ± 0.16 | 22% | 253 ng·h/mL | 71.7% | 10200 ng·h/mL | ≥ 50% | 20 to 50% | ≥ 50% | < 20% | ≥ 50% | < 20% | ≥ 50% | ≤ 100 nM | ≤ 100 nM | 100 to 1000 nM | 780 nM | +++ (97% or more: +++) | concentration in the stomach versus in vitro H+/K+ ATPase IC50 [9]: exceeded ICH of the in vitro H^+/K^+ ATPase inhibition assay at all time points
